Read-outs that look alike come from different tables or passages of the source. Each block holds one compound with its values, some of them ahead of it.
Experiments:
[1] = tested on: glycine receptor channels; assay: whole-cell current recording, cell-flow with mixer (effect of the caged compound or photoproduct on glycine receptor channels); assay type: cell-based, mouse; conditions: for effect on glycine receptors or their response to glycine: mouse cerebral cortical neurons, pH 7.1
Experimental: (§1) Whole-cell current recording was performed as follows. The preparation of embryonic mouse cortical cells was as described by Geetha et al. (Biochemistry 31:5488-5499 (1992)). The extracellular recording buffer was 145 mM NaCl, 1.8 MM MgCl2, 1 mM CaCl2 and 10 mM Hepes (pH 7.4) and the intracellular buffer was 145 mM CsCl, 1 mM CaCl2, 10 mM EGTA [ethyleneglycol-bis-(beta-aminoethyl ether) N,N,N',N'-tetraacetic acid] and 10 mM Hepes (pH 7.2) The flow method used to equilibrate receptors on the surface of a single cell with ligands within 10 ms has been described by Udgaonkar et al (Proc. Natl. Acad. Sci. USA, 84:8758-8762 (1987)). The whole-cell current responses were determined in mouse cortical neurons, pH […], room temperature (22° C.). Caged glycine solutions at pH 4.0 in extracellular buffer but containing only 5 mM Hepes were mixed in 1:1 proportions with extracellular recording buffer containing 20 mM Hepes at pH 7.4 using a low volume T-tube mixer before the solutions entered the U-tube that delivered the solution stream at pH 7.1 to the cell at a linear flow rate of 0.5 cm s^-1. The whole-cell current due to opening of glycine receptor channels was recorded using the technique of Hamill et al. (Pflugers Arch, 391:85-100 (1981)). All other details of the cell-flow technique, and the combination of the cell-flow technique with the laser-pulse photolysis technique in which the whole-cell current is measured after photolysis of caged neurotransmitter, were as described by Matsubara et al (Biochemistry, 31:5507-5514 (1992)). Hydrolysis of the caged glycine before it was applied to a cell was prevented by the mixer strategy.
Specifically, the caged glycine solution with and without free glycine at pH 4.0 was rapidly mixed with extracellular buffer to produce a solution of pH 7.1 before flowing it over the cell. A control solution of 85 μM free glycine (170 μM glycine in extracellular buffer mixed with pH 4 buffer used to stabilize the ester) is shown by the solid trace in FIG. 3. […] Identical current responses were obtained when 170 μM glycine in pH 7.4 buffer was mixed with pH 4 buffer when the solutions were altemately applied from the two different supply lines of the mixer (data not shown).

[2] = laser-pulse photolysis, transient absorbance (photolysis speed and product quantum yield); assay type: physicochemical
Experimental: (§2) To evaluate the photolysis characteristics of the 2-methoxy-5-nitro glycine ester of Example I, laser pulse photolysis was performed and the results thereof are shown in FIG. 2 by the rapid absorbance jump produced by the photolysis of the ester. The light source used to initiate the photolysis reaction was a Lumonics TE861M excimer laser. The lasing medium was either 2% N2 in helium, which produced a primary energy of 6 mJ at 337 nm with a 4 ns pulse width, or a XeCl mix that produced 70 rnJ at 308 nm in 6 ns pulses. For cell photolysis, the 337 nm light was delivered to the microscope stage for use in whole-cell recording measurements with a 300 μm core optical fiber (FiberGuide Industries); 10% of the primary energy was typically coupled through the fiber to the cell preparation. Rapid absorbance changes of caged compound solutions were measured with a transient absorbance spectrophotometer in which 308 nm light from the primary output of the laser was focussed into a 2×2 mm quartz cuvet and the absorbance changes produced were monitored at right angles to the laser beam with a single beam transient spectrophotometer whose signal transfer parameters effectively produced 500 kHz filtering of the rapid absorbance jump. The photocurrent was amplified with a Thorn EMI model Al preamplifier, which also acted as a low pass filter with cutoff dependent on the amplification selected; the cutoff frequencies were between 50 KHz and 50 MHz. The rapid absorbance jump produced in the caged ester solution by single laser flashes could be digitized at up to 2 MHz with a digital oscilloscope and in each case the preamplifier filtering was matched to the digitization rate of the data collection. Measurements of the pulsed UV light energy for quantum yield determinations were made with a Gentec ED200 calibrated thermopile.
Absorbance measurements of the fast jump were made over the range 350 to 450 nm and the resulting profile matched the absorbance spectrum of the expected 2-methoxy-5-nitrophenol. Measurements of triplet quenching in the reaction of 2-methoxy-5-nitrophenyl acetate by Kuzmic et al. (supra) indicate that the lifetime of the photohydrolysis reaction is 0.15 μs. The maximum time resolution of the transient absorbance measurements in our study is 0.5 μs.
The product quantum yield from photolysis of the caged glycine was estimated by comparison to the photolysis of 2-methoxy-5-nitrophenyl acetate, which was used as an actinometric standard. A quantum yield of 0.22 was found for a 1 mM solution of 2-methoxy-5-nitrophenyl acetate in 100 mM phosphate buffer at pH 7.0 that also contained 20% acetonitrile to substituted for caged glycine.

[3] = cited from earlier work
[4] = tested on: acetylcholine receptor; conditions: Milburn et al.; cited from earlier work
[5] = spontaneous hydrolysis in buffer followed spectrophotometrically; assay type: physicochemical
Experimental: A 1.1 mM solution of the caged glycine of Example I was prepared in extracellular recording buffer at pH 7.1. […] The caged glycine ester was rapidly dissolved in buffers to produce approximately 800 μM solutions of the caged compound and immediately transferred to a 2×2 cuvette in a Hewlett Packard model 8452A diode array spectrophotometer set up to collect spectra at timed intervals. The initial rates of the hydrolysis reaction were obtained from absorbance measurements at 310, 360 and 384 nm after subtraction of the absorbance of the completely hydrolyzed solution. The spectra of the fully hydrolyzed solutions were identical in all cases to reference spectra of 2-methoxy-5-nitrophenol at the different pH values. The upper trace at 310 nm represents the spectrum of the compound before hydrolysis. The lower trace at 310 nm corresponds to the fully hydrolyzed material and matches the spectrum of 2-methoxy-5-nitrophenol at pH 7.0. The spectra were acquired at 0, 1, 2, 3, 4, 6, 8, 11 and 60 min after the initial rapid dissolution in buffer. All measurements were performed at room temperature (22°-24° C.).

[6] = tested on: glycine receptor channels; assay: whole-cell current after laser-pulse photolysis of caged glycine (cell-flow laser-pulse photolysis); assay type: cell-based, mouse; conditions: for rate of rising phase of whole-cell current: 700 μM caged compound, pH 7.1
Experimental: as §2
as §1, with “strategy. […]” for “strategy.”

SMILES: COc1ccc([N+](=O)[O-])cc1O [2-methoxy-5-nitrophenol]
effect on glycine receptors or their response to glycine [1]: Neither the caged compound nor the 2-methoxy-5-nitrophenol photolysis product affected the glycine receptors or modified their response to glycine

quantum yield ([2]; 1 mM solution in 100 mM phosphate buffer at pH 7.0 with 20% acetonitrile, actinometric standard): 0.22
SMILES: COc1ccc([N+](=O)[O-])cc1OC(C)=O [2-methoxy-5-nitrophenyl acetate, reference compound]
lifetime of the photohydrolysis reaction ([3]; triplet quenching measurements, Kuzmic et al.): 0.15 μs

SMILES: O=C(O)CNC(C(=O)O)c1ccccc1[N+](=O)[O-] (stereo not shown) [N-(.varies.-carboxy-2-nitrobenzyl)glycine]
product quantum yield ([3]; Billington et al.): 0.02
photolysis time constant τ ([3]; pH 7.5, Billington et al.): 1.6 ms

SMILES: C[N+](C)(C)CCOC(=O)NC(C(=O)O)c1ccccc1[N+](=O)[O-] (stereo not shown) [caged carbamoylcholine]
time to liberate carbamoylcholine by a laser pulse ([3]; laser pulse, Milburn et al.): ≤ 120 μs
photolysis t1/2 ([3]; photolysis to carbamoylcholine, Milburn et al.): 40 μs
biological activity before photolysis [4]: biologically inert

product quantum yield from photolysis ([2]; caged glycine, estimated by comparison to 2-methoxy-5-nitrophenyl acetate as actinometric standard): 0.2
half-life ([5]; buffer, pH 4, pH 4.0, read-out: time constant τ for hydrolysis (converted)): ~3 h
half-life ([5]; hepes buffer, pH 7.1, pH 7.1 (neutral pH, Hepes buffered solution), room temperature (22-24° C.), absorbance at 310 nm, read-out: time constant of spontaneous hydrolysis): 0.102 h
time thawed pH 4 solution could be used without detectable glycine currents in the preincubation baseline ([6]; frozen aliquots of freshly prepared caged glycine pH 4 solution, thawed before application with the mixer): up to 20 min
SMILES: COc1ccc([N+](=O)[O-])cc1OC(=O)CN [caged glycine, 2-Methoxy-5-nitrophenyl glycine ester]
speed of absorbance jump on photolysis with 337 nm light ([2]; 337 nm versus 308 nm light, excimer laser): as fast as the one induced by 308 nm light
time within which caged glycine is photolyzed / converted to products ([2]; laser pulse, absorbance change at 380 nm, b60: 308 or 337 nm): ≤ 3 μs
effect of caged glycine on current response to free glycine ([1]; 170 μM glycine mixed 1:1 with 1.1 mM caged glycine ester in pH 4 buffer, versus control 85 μM free glycine): An identical response was produced
activation of whole cell current by caged glycine ([1]; caged glycine at pH 4.0 mixed with external buffer, final pH 7.1, -40 mV, 22° C., mouse cortical neurons): did not activate any whole cell current
effect on glycine receptors or their response to glycine [1]: Neither the caged compound nor the 2-methoxy-5-nitrophenol photolysis product affected the glycine receptors or modified their response to glycine
inhibition or activation by caged glycine ([1]; mouse cortical neurons, pH 7.1, -40 mV): no observable inhibition or activation
opening of glycine receptor channels on irradiation ([6]; laser pulse at 337 nm, mouse cerebral cortical neurons equilibrated with caged glycine): glycine receptor channels were opened
rate of rising phase of whole-cell current ([6]; lowest trace, 10 μm (so in the source) glycine released by photolysis): 42 s⁻¹
rate of rising phase of whole-cell current ([6]; middle trace, 18 μM glycine released by photolysis): 40 s⁻¹
rate of rising phase of whole-cell current ([6]; upper trace, 35 μM free glycine released by photolysis): 54 s⁻¹
